22 molecules from patent publication US20140107109A1, “AMINO-DIHYDROTHIAZINE AND AMINO-DIOXIDO DIHYDROTHIAZINE COMPOUNDS AS BETA-SECRETASE ANTAGONISTS AND METHODS OF USE” (Amgen Inc., priority 2012, published 2014) can be followed below.

For test [1], the target named is Beta Secretase enzyme (BACE1) (Homo sapiens, UniProt P56817). The test can be described thus: In vitro enzymatic BACE FRET assay. The format is biochemical. Particulars: average IC50, enzyme assay; read-out: BACE1 FRET assay IC50. Summed up:
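BACE1 cleavage of a 50 nM fluorophore/quencher peptide FRET substrate ran for one hour in 0.05 M acetate pH 4.2, 10% DMSO, 100 uM genapol. Tris buffer raised pH to neutrality to stop the reaction before fluorescence was read (excitation 488 nm, […]).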

The test system of test [2] is Aβ40 in conditioned medium of cells stably expressing Amyloid Precursor Protein (APP). Nature of the test: In vitro BACE cell-based assay (HEK cell assay), Aβ40 sandwich ELISA. Particulars: Homo sapiens, HEK293; average IC50, cell assay. Summed up:
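APP-stably expressing cells (40K/well, grown 24 h in DMEM/10% FBS) were treated 24 h with compounds in 10-point dose response starting at 100 μM or 10 μM, 0.1% DMSO final. Secreted Aβ40 was measured by sandwich ELISA (pAb40 capture, biotinylated 6E10 detection, europium time-resolved fluorescence); IC50 from percent inhibition.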
Background: An ELISA detects its analyte on a solid surface through an enzyme-linked reagent.

The next test concerns the target T1, Cathepsin D (Cat D) (Homo sapiens, UniProt P07339).
T1 construct: Recombinant Cat D was expressed in CHO cells; made in house; host or cells: CHO cells
Nature of the test: In vitro enzymatic Cathepsin D (Cat D) FRET assay. The format is biochemical. Particulars: read-out: CatD IC50. In a few lines: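 Recombinant Cat D expressed in CHO cells, used at 9 nM and pre-incubated one hour with serially diluted inhibitor in DMSO. Peptide substrate carries a fluorophore and quencher flanking the cleavage site; reaction stopped with Tris buffer raising pH to neutrality, then fluorescence read.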

T1 sequence (P07339 65-412, species assumed): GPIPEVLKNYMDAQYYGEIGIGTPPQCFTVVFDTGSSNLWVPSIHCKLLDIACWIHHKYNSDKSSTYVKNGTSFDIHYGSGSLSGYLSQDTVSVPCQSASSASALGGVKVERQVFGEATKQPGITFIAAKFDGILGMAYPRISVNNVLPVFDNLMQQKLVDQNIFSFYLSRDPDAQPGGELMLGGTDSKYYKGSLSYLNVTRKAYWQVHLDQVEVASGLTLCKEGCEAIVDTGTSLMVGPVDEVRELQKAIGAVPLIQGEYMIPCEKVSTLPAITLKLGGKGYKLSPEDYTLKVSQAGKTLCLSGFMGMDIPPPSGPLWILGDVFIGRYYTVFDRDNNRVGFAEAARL
Sequence of Beta Secretase enzyme (BACE1) (P56817 46-501): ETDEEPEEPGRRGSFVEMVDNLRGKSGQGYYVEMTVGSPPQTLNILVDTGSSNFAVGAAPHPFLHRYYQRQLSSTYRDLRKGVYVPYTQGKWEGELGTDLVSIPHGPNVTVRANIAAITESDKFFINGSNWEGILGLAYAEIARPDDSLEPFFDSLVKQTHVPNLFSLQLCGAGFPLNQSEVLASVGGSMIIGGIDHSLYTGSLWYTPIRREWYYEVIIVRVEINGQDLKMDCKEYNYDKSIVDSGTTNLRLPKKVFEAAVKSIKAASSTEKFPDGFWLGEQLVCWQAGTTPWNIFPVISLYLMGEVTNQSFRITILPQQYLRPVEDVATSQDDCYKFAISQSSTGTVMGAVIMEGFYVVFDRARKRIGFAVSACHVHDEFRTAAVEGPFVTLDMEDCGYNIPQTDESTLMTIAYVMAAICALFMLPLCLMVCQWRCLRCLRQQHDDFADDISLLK

With `CC#CCOc1cnc2c(Nc3ccc(F)c([C@]4(C)CS(=O)(=O)C(C)(C)C(N)=N4)c3)nccc2c1` [Example 254, N-(3-((3R)-5-amino-3,6,6-trimethyl-1,1-dioxido-3,6-dihydro-2H-1,4-thiazin-3-yl)-4-fluorophenyl)-3-(2-butyn-1-yloxy)-1,7-naphthyridin-8-amine], the IC50 (as a rule, the concentration at which inhibition is half-maximal) came to 0.0006 µM in test [1], 0.0006 µM in test [2] and 354 µM at Cathepsin D (Cat D).
Consider `CC1(C)C(N)=N[C@](C)(c2cc(Oc3cc(-c4ccc(C(F)(F)F)cc4)ccn3)ccc2F)CS1(=O)=O` [Example 255, (5R)-5-(2-fluoro-5-((4-(4-(trifluoromethyl)phenyl)-2-pyridinyl)oxy)phenyl)-2,2,5-trimethyl-5,6-dihydro-2H-1,4-thiazin-3-amine 1,1-dioxide], for which the values for the half-maximal inhibitory concentration (IC50) (in test [1]; in test [2]; at Cathepsin D (Cat D)) were 0.663 µM, 3.99 µM and 50.5 µM, respectively.
The matching figures for `Cc1cc(-c2cnc(Oc3ccc(F)c([C@]4(C)CS(=O)(=O)C(C)(C)C(N)=N4)c3)c(F)c2)on1` [Example 256, (5R)-5-(2-fluoro-5-((3-fluoro-5-(3-methyl-5-isoxazolyl)-2-pyridinyl)oxy)phenyl)-2,2,5-trimethyl-5,6-dihydro-2H-1,4-thiazin-3-amine 1,1-dioxide]: 0.65 µM, 1.82 µM and 195 µM.
The matching figures for `CC(C)(C)Cc1ccc(Oc2ccc(F)c([C@]3(C)CS(=O)(=O)C(C)(C)C(N)=N3)c2)nc1` [Example 257, (5R)-5-(5-((5-(2,2-dimethylpropyl)-2-pyridinyl)oxy)-2-fluorophenyl)-2,2,5-trimethyl-5,6-dihydro-2H-1,4-thiazin-3-amine 1,1-dioxide]: 18.9 µM, 7.79 µM and 187 µM.
The matching figures for `CC1(C)C(N)=N[C@](C)(c2cc(Oc3ncccc3Cl)ccc2F)CS1(=O)=O` [Example 258, (5R)-5-(5-((3-chloro-2-pyridinyl)oxy)-2-fluorophenyl)-2,2,5-trimethyl-5,6-dihydro-2H-1,4-thiazin-3-amine 1,1-dioxide]: 0.0969 µM, 0.121 µM and 207 µM.
Consider `CC1(C)C(N)=N[C@](C)(c2cc(Oc3cc(C(F)(F)F)ccn3)ccc2F)CS1(=O)=O` [Example 259, (5R)-5-(2-fluoro-5-((4-(trifluoromethyl)-2-pyridinyl)oxy)phenyl)-2,2,5-trimethyl-5,6-dihydro-2H-1,4-thiazin-3-amine 1,1-dioxide], for which the figures for the IC50 (in test [1]; in test [2]; at Cathepsin D (Cat D)) were 0.153 µM, 0.248 µM and 1050 µM, respectively.
The matching figures for `CC1(C)C(N)=N[C@](C)(c2cc(Nc3nccc4cc(OCC5CC5)cnc34)ccc2F)CS1(=O)=O` [Example 260, N-(3-((3R)-5-amino-3,6,6-trimethyl-1,1-dioxido-3,6-dihydro-2H-1,4-thiazin-3-yl)-4-fluorophenyl)-3-(cyclopropylmethoxy)-1,7-naphthyridin-8-amine]: 0.0038 µM, 0.0075 µM and 250 µM.
The matching figures for `CC1(C)C(N)=N[C@](C)(c2cc(Oc3ccc4ccccc4n3)ccc2F)CS1(=O)=O` [Example 261, (5R)-5-(2-fluoro-5-(2-quinolinyloxy)phenyl)-2,2,5-trimethyl-5,6-dihydro-2H-1,4-thiazin-3-amine 1,1-dioxide]: 0.3 µM, 0.574 µM and 58.3 µM.
Consider `CC1(C)C(N)=N[C@](C)(c2cc(Oc3ncc(F)c(C(F)(F)F)c3F)ccc2F)CS1(=O)=O` [Example 262, (5R)-5-(5-((3,5-difluoro-4-(trifluoromethyl)-2-pyridinyl)oxy)-2-fluorophenyl)-2,2,5-trimethyl-5,6-dihydro-2H-1,4-thiazin-3-amine 1,1-dioxide], for which the IC50 was 15.5 µM in test [1], more than 15.6 µM in test [2] and 68.1 µM on Cathepsin D (Cat D).
On to `Cc1cccnc1Oc1ccc(F)c([C@]2(C)CS(=O)(=O)C(C)(C)C(N)=N2)c1` [Example 263, (5R)-5-(2-fluoro-5-((3-methyl-2-pyridinyl)oxy)phenyl)-2,2,5-trimethyl-5,6-dihydro-2H-1,4-thiazin-3-amine 1,1-dioxide], for which the IC50 turned out to be 0.65 µM in test [1], 0.624 µM in test [2] and 555 µM at Cathepsin D (Cat D).
In the same order, the values of `Cc1ccnc(Oc2ccc(F)c([C@]3(C)CS(=O)(=O)C(C)(C)C(N)=N3)c2)c1` [Example 264, (5R)-5-(2-fluoro-5-((4-methyl-2-pyridinyl)oxy)phenyl)-2,2,5-trimethyl-5,6-dihydro-2H-1,4-thiazin-3-amine 1,1-dioxide] are 0.18 µM, 0.126 µM and 878 µM.
In the case of `Cc1ccc(Oc2ccc(F)c([C@]3(C)CS(=O)(=O)C(C)(C)C(N)=N3)c2)nc1` [Example 265, (5R)-5-(2-fluoro-5-((5-methyl-2-pyridinyl)oxy)phenyl)-2,2,5-trimethyl-5,6-dihydro-2H-1,4-thiazin-3-amine 1,1-dioxide], the figures for the IC50 (in test [1]; in test [2]; on Cathepsin D (Cat D)) were 2.26 µM, 0.804 µM and 373 µM, respectively.
In the case of `Cc1cccc(Oc2ccc(F)c([C@]3(C)CS(=O)(=O)C(C)(C)C(N)=N3)c2)n1` [Example 266, (5R)-5-(2-fluoro-5-((6-methyl-2-pyridinyl)oxy)phenyl)-2,2,5-trimethyl-5,6-dihydro-2H-1,4-thiazin-3-amine 1,1-dioxide], the IC50 in test [1] came to 0.413 µM; in test [2] it was 0.427 µM; on Cathepsin D (Cat D) it was 407 µM.
In the case of `CC1(C)C(N)=N[C@](C)(c2cc(Oc3ncc(C(F)(F)F)cc3Cl)ccc2F)CS1(=O)=O` [Example 267, (5R)-5-(5-((3-chloro-5-(trifluoromethyl)-2-pyridinyl)oxy)-2-fluorophenyl)-2,2,5-trimethyl-5,6-dihydro-2H-1,4-thiazin-3-amine 1,1-dioxide], the half-maximal inhibitory concentration (IC50) in test [1] is 0.603 µM; in test [2], 0.874 µM; on Cathepsin D (Cat D), 221 µM.
`CC1(C)C(N)=N[C@](C)(c2cc(Oc3cc(N)nc(N)n3)ccc2F)CS1(=O)=O` [Example 268, 6-(3-((3R)-5-amino-3,6,6-trimethyl-1,1-dioxido-3,6-dihydro-2H-1,4-thiazin-3-yl)-4-fluorophenoxy)-2,4-pyrimidinediamine]: the half-inhibitory concentration (IC50) in test [1] turned out to be 0.318 µM; in test [2], 0.305 µM; at Cathepsin D (Cat D), 920 µM.
With `CC1(C)C(N)=N[C@](C)(c2cc(Oc3cccc(C(F)(F)F)n3)ccc2F)CS1(=O)=O` [Example 269, (5R)-5-(2-fluoro-5-((6-(trifluoromethyl)-2-pyridinyl)oxy)phenyl)-2,2,5-trimethyl-5,6-dihydro-2H-1,4-thiazin-3-amine 1,1-dioxide], the values for the half-maximal inhibitory concentration (IC50) (in test [1]; in test [2]; at Cathepsin D (Cat D)) were 0.248 µM, 0.574 µM and 132 µM, respectively.
For `CC1(C)C(N)=N[C@](C)(c2cc(Oc3cnccn3)ccc2F)CS1(=O)=O` [Example 270, (5R)-5-(2-fluoro-5-(2-pyrazinyloxy)phenyl)-2,2,5-trimethyl-5,6-dihydro-2H-1,4-thiazin-3-amine 1,1-dioxide], the IC50 worked out at 0.0935 µM in test [1], 0.0511 µM in test [2] and 222 µM at Cathepsin D (Cat D).
The matching figures for `Cc1cc(C#N)cnc1Oc1ccc(F)c([C@]2(C)CS(=O)(=O)C(C)(C)C(N)=N2)c1` [Example 271, 6-(3-((3R)-5-amino-3,6,6-trimethyl-1,1-dioxido-3,6-dihydro-2H-1,4-thiazin-3-yl)-4-fluorophenoxy)-5-methyl-3-pyridinecarbonitrile]: 0.549 µM, 0.474 µM and 540 µM.
Consider `Cc1nc(Oc2ccc(F)c([C@]3(C)CS(=O)(=O)C(C)(C)C(N)=N3)c2)ccc1C#N` [Example 272, 6-(3-((3R)-5-amino-3,6,6-trimethyl-1,1-dioxido-3,6-dihydro-2H-1,4-thiazin-3-yl)-4-fluorophenoxy)-2-methyl-3-pyridinecarbonitrile], for which the IC50 amounted to 2.69 µM in test [1], 2.02 µM in test [2] and 217 µM at Cathepsin D (Cat D).
`CC1(C)C(N)=N[C@](C)(c2cc(Oc3ncccc3N)ccc2F)CS1(=O)=O` [Example 273, (5R)-5-(5-((3-amino-2-pyridinyl)oxy)-2-fluorophenyl)-2,2,5-trimethyl-5,6-dihydro-2H-1,4-thiazin-3-amine 1,1-dioxide]: the IC50 in test [1] was 1.5 µM; in test [2], 1.01 µM; on Cathepsin D (Cat D), more than 400 µM.
In the same order, the values of `CC1(C)C(N)=N[C@](C)(c2cc(Oc3ncccc3F)ccc2F)CS1(=O)=O` [Example 274, (5R)-5-(2-fluoro-5-((3-fluoro-2-pyridinyl)oxy)phenyl)-2,2,5-trimethyl-5,6-dihydro-2H-1,4-thiazin-3-amine 1,1-dioxide] are 0.0374 µM, 0.0348 µM and 153 µM.
Turning to `CC1(C)C(N)=N[C@](C)(c2cc(Oc3ccc(F)cn3)ccc2F)CS1(=O)=O` [Example 275, (5R)-5-(2-fluoro-5-((5-fluoro-2-pyridinyl)oxy)phenyl)-2,2,5-trimethyl-5,6-dihydro-2H-1,4-thiazin-3-amine 1,1-dioxide], the IC50 was found to be 0.84 µM in test [1], 0.424 µM in test [2] and 364 µM on Cathepsin D (Cat D).
